The values below come from patent US10292992B2, “Selective high-affinity polydentate ligands and methods of making such” (LAWRENCE LIVERMORE NATIONAL SECURITY, LLC, priority 2008, dated 2019).

Each structure is given as a SMILES string. pKd: −log10 of the molar value. Entries after “also recorded” stand apart in the source; their conditions may differ.

For assay [1], the system named is HLA-DR10. The assay can be described thus: NMR screening of ligands for binding to HLA-DR10. On the set-up: species or system human. From the text:
Determination of ligand binding and orientation can also be determined using a number of different methods. These include, but are not limited to Saturation Transfer Difference nuclear magnetic resonance (Mayer and Meyer (1999) Angew Chem Int Edit, 38:1784-1788) and Transfer NOE (trNOE) nuclear magnetic resonance (NMR) spectroscopy (Henrichsen et al. (1999) Angew Chem Int Edit., 38:98-102; Cosman et al. (2002) Chem Res Toxicol 15: 1218-1228). These methods can be used to screen the ligands in mixtures of several to several hundred per experiment to determine which ligands bind to the target molecule(s) e.g., under biologically relevant conditions and to determine which ligands bind to the same (or different) sites. Diffusion experiments (Lin et al. (1997) J. Organic Chem., 62: 8930-8931) can also be performed with those ligands that have been determined to bind in order to assess the relative binding affinity of each compound.
As a result of the computational docking, 30 compounds from both the Site 1 and Site 2 lists were experimentally screened by NMR.
A number of cell surface protein receptors have been identified that distinguish malignant cancer cells from their normal counterparts. […] This has led to the development of a variety of antibody-based, receptor-specific reagents conjugated to radioisotopes for use in radio-immunotherapy. […]

The subject of assay [2] is Raji cells. The assay can be described thus: 3-D confocal microscopy, Raji cells. In kind it is cell-based, human. To be noted: biotinylated reagent, 1 hr; 10 μM SHAL or 10 nM chLym-1; listed as parent SHAL. The method, then:
SHAL binding and internalization by Raji and Jurkat's cells was assessed using the method described previously by O'Donnell et al. (O'Donnell et al. (1998) Prostate 37:91-97). Experiments were conducted comparing the binding of (DvLPBaPPP)2LLDo (the parent SHAL), its hexa-arginine analog (DvLPBaPPP)2LArg6AcLLDo, and chimeric Lym-1 (chLym-1) to Raji cells. All steps were performed at 20° C., unless indicated.
Four million Raji cells (>92% viability) in log phase growth were pelleted at 300×g, washed, and blocked for 30 min in 1 ml of 1% fraction V BSA in PBS, with constant rotation. Cells were then incubated 1 hr, at 1 million per 250 μl, with either 1% BSA in PBS or a biotinylated primary reagent: 10 nM chLym-1, 10 μM parent SHAL, or 10 μM hexa-arginine SHAL. After four washes (two in 1% BSA in PBS, two in PBS), 50 μl of the cell suspensions was applied to freshly poly-L-Lysine coated slides, and cells were allowed to adhere for 10 min in a humid chamber. Fixation and permeabilization were performed at −20° C. by using a 4 min exposure to methanol. Jurkat's cells were treated in the same manner as a control.
Slides were then washed twice in PBS and blocked in 10% fetaplex serum (Gemini Bioproducts, West Sacramento, Calif.) in PBS for 15 min and washed once in PBS. The detection reagent, Streptavidin AlexaFluor 610 (Invitrogen, Carlsbad, Calif.) was diluted 1/500 in diluent, 100 μl was applied; a parafilm cover slip was layered over the solution to prevent evaporation. The slides were incubated in a humid chamber for 30 min., washed 5 times for 5 min each in PBS, and rinsed briefly in double distilled H2O. After the slides dried, cover slips were mounted with ProlongGold with 4′,6-diamidino-2-phenylindole (DAPI, Invitrogen, Carlsbad, Calif.). The slides were viewed with an Olympus FV1000 laser scanning confocal microscope and data were collected as Z-scans at 160×, with focal sections being taken 1 μm apart through the cell.

Assay [3] concerns cultured cell lines containing HLA-DR10. To be noted: shown previously (Balhorn et al. 2007); cited from earlier work.
The target of assay [4] is HLA-DR10 protein. The assay can be described thus: Surface plasmon resonance binding of SHALs to isolated HLA-DR10 protein. On the set-up: species or system human. To be noted: biotinylated versions of the SHALs immobilized on streptavidin chip; HLA-DR10 isolated from Raji cells. The source says: In certain embodiments, the binding affinities of the best SHALs can be estimated by mass spectrometry of the SHAL-target complexes, followed by a more accurate surface plasmon resonance (SPR) spectroscopy (Shuck (1997) Annu Rev Biophys Biomol Struct., 26: 541-566; Van Regenmortal (2001) Cell Mol Life Sci., 58: 794-800) measurement of the SHAL-target binding affinity using for example, the IASYS Plus or BiaCore instruments. In order to perform the SPR measurement, biotin can be added to the linker through a third functional group (as described above) and the SHAL can be bound to commercially available streptavidin coated chips. […] Experiments can be performed to test the selectivity of SHAL binding to targets in the presence of molecules related to the targets. Thus, for example, where the SHAL is directed to HLA-DR10, the SHAL can be evaluated for its ability to bind target molecules in the presence of Raji cell surface proteins extracted and separated by affinity chromatography. After treating the gel with the biotinylated SHAL and rinsing out excess unbound SHAL, the location of the bound SHAL can be detected by staining with Rhodamine tagged streptavidin.
Protein binding experiments were conducted using surface plasma resonance on a Biacore 3000 (Biacore, Piscataway, N.J.) at 25° C. A research grade streptavidin immobilized chip (SA chip, Biacore) was preconditioned and normalized according to the manufacturers instructions. Biotin labeled SHALs were dissolved in DMSO and diluted in 1.05×PBS (Biacore) to a final concentration of 1×PBS pH 7.4, 5% DMSO, to match the running buffer. These SHALs were injected over the flow cell to yield a surface density of 500-1000RU (response units). Biotin (50 μM E-Z Link Amine-PEO2-Biotin, Pierce) was injected over all cells for 1 minute at 20 μl/min as a block to reduce non-specific binding. One flow cell was used as a reference cell and a different SHAL was immobilized on each of the three other cells.
Experiments measuring the binding of HLA-DR10 to the SHALs were carried out at a flow rate of 30 μl/minute in PBS pH7.4 running buffer using all 4 flow cells. HLA-DR10 isolated from Raji cells (Rose et al. (1996) Cancer Immunol Immunother 43:26-30) was diluted in running buffer to a final concentration ranging from […] and a series of concentrations were run randomly in triplicate. Protein was injected for 3 minutes, allowed to dissociate for 5 minutes followed by regeneration of the surface using a 1 minute injection of 0.1% sodium dodecylsulfate (SDS) followed by a washing step with a 2 minute injection of running buffer. The data, which were double referenced by subtracting the blank reference surface and an average of 5 blank injections, were processed using the program SCRUBBER (University of Utah).
Using homology modeling, HLA-DR amino acid residues critical for Lym-1 binding were mapped on a 3-D model of the HLA-DR10ß subunit (Balhorn et al, (2007) Clin. Cancer Res., 13(Suppl. 18): S5621-S5628). Cavities within the Lym-1 epitopic surface of the protein were identified using SPHGEN (Kuntz et al. (1982) J. Mol Biol. 161: 269-288; Desjarlais et al. (1988) J. Med. Chem., 31: 722-729). After computational ligand docking for each of the cavities, a combination of NMR spectroscopy, surface plasmon resonance (BIAcore 3000; Biacore, Piscataway, N.J.) and competitive binding experiments were used to confirm ligand binding to HLA-DR10 protein. […]
In general terms: SPR reads the build-up and loss of mass on a sensor chip optically.

The subject of assay [5] is Raji cells expressing HLA-DR10. Description: Whole cell binding assay with 111In-labeled SHAL. The assay is classed as cell-based, human. The method, then: Raji human Burkitt's lymphoma B-cells (American Type Culture Collection, Manassas, Va.) were maintained in RPMI-1640 media supplemented with 10% fetal bovine serum, 2mM L-glutamine, 1 mM sodium pyruvate, 1% of a solution of nonessential amino acids (GIBCO #11140-050), and 100 units/ml of Penicillin G, 100 μg/ml Streptomycin, and 0.25 μg/ml of Amphotericin B at 37° C. in a humidified 5% CO2 atmosphere. Jurkat's cells (American Type Culture Collection, Manassas, Va.), an acute leukemia T-cell line, were maintained in the same medium with the addition of 10 mM 4-(2-hydroxyethyl)-1-piperazineethanesulfonic acid (HEPES).
A series of experiments were conducted to quantify the uptake of the ^111In-labeled parent SHAL (DvLPBaPPP)2LLDo and its hexa-arginine analog (DvLPBaPPP)2LArg6AcLLDo by Raji cells, a cell line that has been previously shown to express the HLA-DR10 variant. The assays were conducted using aliquots containing 10^6 cells suspended in 150 μl of PBS with 5% bovine serum albumin (BSA). Aliquots of cells were treated with 0.1, 1, 5, 10 or 25 ng of ^111In-labeled (DvLPBaPPP)2LLDo or (DvLPBaPPP)2LArg6AcLLDo for one hour at both 4° C. and 22° C. The tubes containing the treated cells were centrifuged to separate the cell pellet from the supernatant and the two fractions were counted in a calibrated gamma well counter to determine the amount of bound and free SHAL. Half of the cell pellets were washed twice with PBS and incubated at 22° C. for 15 min before centrifuging them again. The pooled washes and washed cell pellets were subsequently counted in the gamma well counter to assess how much of the bound SHAL could be removed by washing.
In vitro cell binding experiments were conducted using ^111In-labeled parent SHAL and the hexa-arginine SHAL analog to quantify SHAL uptake and to evaluate the effect of adding the hexa-arginine tag. Uptake was assessed using Raji cells, a lymphoma cell line expressing HLA-DR10. Aliquots containing 10^6 cells were incubated with increasing amounts of SHAL containing ^111In labeled SHAL as a tracer, and cell-associated ^111In was measured before and after washing the cell pellets.

With `Nc1ccc(Oc2ccc(C(=O)c3ccc(C(=O)c4ccc(Oc5ccc(N)cc5)cc4)cc3)cc2)cc1` [1,4-phenylenebis[[4-(4-aminophenoxy)phenyl]methanone]], the “binding to HLA-DR10 in subsequent screenings” value in assay [1] is recorded as “precipitated onto the target protein”.

As for `CC(C)C(NS(=O)(=O)c1ccc(N=Nc2ccc(N(C)C)cc2)cc1)C(=O)NC(CCCCNC(=O)COCCOCCNC(=O)c1ccc(NC(=O)C(CCCNC(=N)N)NC(=O)c2ccccc2)cc1)C(=O)NCCOCCOCC(=O)NCCOCCOCC(=O)NCCOCCOCC(=O)NCCCCC(NC(=O)COCCOCCNC(=O)COCCOCCNC(=O)COCCOCCNC(=O)C(CCCCNC(=O)COCCOCCNC(=O)c1ccc(NC(=O)C(CCCNC(=N)N)NC(=O)c2ccccc2)cc1)NC(=O)C(NS(=O)(=O)c1ccc(N=Nc2ccc(N(C)C)cc2)cc1)C(C)C)C(=O)NC(CCCCNC(=O)CN1CCN(CC(=O)O)CCN(CC(=O)O)CCN(CC(=O)O)CC1)C(=O)O` (centres unmarked) [(DvLPBaPPP)2LLDo], the “SHAL binding, uptake and localization in Raji cells” value in assay [2] is “intracellular binding; also recorded: Nuclear staining was not observed; also recorded: taken up and internalized”. The “selective binding to HLA-DR10 expressing cell lines” value in assay [3] was “bind selectively to HLA-DR10 expressing cell lines”. Besides, in assay [4], the pKd – broadly, the Kd on a negative log10 scale, so that one unit is a factor of ten – is roughly 7.68. In addition, the “pmoles SHAL Bound/10^6 cells unwashed” value in assay [5] (5.3 pmoles of 111In-labeled SHAL, unwashed cell pellets) was 0.568 ± 0.091 pmoles SHAL Bound/10^6 cells. Besides, the “pmoles SHAL Bound/10^6 cells Washed” value in assay [5] (5.3 pmoles of 111In-labeled SHAL, washed two times with BSA/buffer) is 0.263 ± 0.000 pmoles SHAL Bound/10^6 cells. Also, in assay [5] (Raji cells, after washing), the “proportion of SHAL retained by the cells after washing” value is recorded as roughly 46%. Besides, in assay [5] (after washing two times), the “Percent SHAL Retained” value worked out at 46%.
